From patent US20090197843A1, “Treatment of Prevention of Unscheduled Bleeding in Women on Progestogen Containing Medication” (PANTARHEI BIOSCIENCE B.V., priority 2004, published 2009)

How the values were obtained:
Assay type in all cases: in vivo
[1] = system: healthy postmenopausal women; test: Clinical study: continuous combined HRT (estradiol/drosperinone) with or without captopril; details: 15 mg captopril with continuous combined HRT (1 mg estradiol, 2 mg drosperinone), three periods of 28 days; vs HRT preparation alone
Description: A clinical study is conducted in 50 healthy postmenopausal women, postmenopausal being defined as having had the last menstrual period at least 6 months before along with an increased FSH serum level. Two groups of 25 women who are not using any HRT are enrolled. All subjects receive a continuous combined HRT preparation containing 1 mg estradiol and 2 mg drosperinone for three periods of 28 days each. […] Subjects document any unscheduled vaginal bleeding (spotting, breakthrough bleeding) in a diary. Blood pressure is monitored intensively.

[2] = system: healthy women of childbearing age; test: Clinical study: low-dose oral contraceptive (30 μg ethinylestradiol/100 μg levonorgestrel) with or without enalapril; details: 5 mg enalapril with oral contraceptive (30 μg ethinylestradiol, 100 μg levonorgestrel), 84 days; vs oral contraceptive alone
Description: A clinical study is conducted in 50 healthy women of childbearing age. Two groups of 25 women who are not using oral contraception, ‘pill starters’, are enrolled. All subjects receive a low-dose oral contraceptive containing 30 μg ethinylestradiol and 100 μg levonorgestrel for 84 days. Twenty-five (25) subjects are randomized to additionally receive 5 mg enalapril as an ACE-inhibitor with the oral contraceptive during the entire study period. All subjects document any unscheduled vaginal bleeding (spotting, breakthrough bleeding) in a diary. Blood pressure is monitored intensively.

[3] = system: healthy women of childbearing age; test: Clinical study: progestogen-only oral contraceptive (75 μg desogestrel) with or without irbesartan; details: 50 mg irbesartan with progestogen-only oral contraceptive (75 μg desogestrel), 84 days; vs oral contraceptive alone
Description: (§1) A clinical study is conducted in 40 healthy women of childbearing age. Two groups of 20 women who are not using oral contraception, ‘pill starters’, are enrolled. All subjects receive a progestogen-only oral contraceptive containing 75 μg desogestrel for 84 days. Twenty (20) subjects are randomized to additionally receive 50 mg irbesartan as an angiotensin II-receptor antagonist concomitantly with the oral contraceptive during the entire study period. All subjects document any unscheduled vaginal bleeding (spotting, breakthrough bleeding) in a diary. Blood pressure is monitored intensively.

[4] = system: healthy postmenopausal women; test: Clinical study: continuous combined HRT (estradiol/norethisterone acetate) with or without irbesartan; details: 50 mg irbesartan with continuous combined HRT (2 mg estradiol, 1 mg norethisterone acetate), 84 days; vs HRT preparation alone
Description: (§2) A clinical study is conducted in 40 healthy postmenopausal women, postmenopausal being defined as having had the last menstrual period at least 6 months before along with an increased FSH serum level. Two groups of 20 women who are not using any HRT are enrolled. All subjects receive a continuous combined HRT preparation containing 2 mg estradiol and 1 mg norethisterone acetate for 84 days. Twenty (20) subjects are randomized to additionally receive 50 mg irbesartan as an angiotensin II-receptor antagonist concomitantly with the HRT preparation during the entire study period. Subjects document any unscheduled vaginal bleeding (spotting, breakthrough bleeding) in a diary. Blood pressure is monitored intensively.

[5] = system: healthy women of childbearing age; test: Clinical study: contraceptive implant (68 mg etonogestrel) with or without irbesartan; details: 75 mg irbesartan, 6 months, with implant containing 68 mg etonogestrel; vs contraceptive implant alone
Description: A clinical study is conducted in 40 healthy women of childbearing age. Two groups of 20 women are enrolled. All subjects receive an implant containing 68 mg etonogestrel. Twenty (20) subjects are randomized to additionally receive 75 mg irbesartan as an angiotensin II-receptor antagonist concomitantly with the contraceptive implant during the entire study period of 6 months. All subjects document any unscheduled vaginal bleeding (spotting, breakthrough bleeding) in a diary. Blood pressure is monitored intensively.

[6] = system: healthy women of childbearing age; test: Clinical study: low-dose oral contraceptive (20 μg ethinylestradiol/100 μg levonorgestrel) with or without irbesartan; details: 75 mg irbesartan with oral contraceptive (20 μg ethinylestradiol, 100 μg levonorgestrel), 84 days; vs oral contraceptive alone
Description: as §1, with “low-dose” for “progestogen-only”, “20” for “75”, “ethinylestradiol and 100 μg levonorgestrel” for “desogestrel”, “75” for “50”

[7] = system: healthy postmenopausal women; test: Clinical study: sequentially combined HRT (estradiol/dydrogesterone) with or without irbesartan; details: 75 mg irbesartan with sequentially combined HRT (2 mg estradiol, 10 mg dydrogesterone), 3 cycles of 28 days; vs HRT preparation alone
Description: as §2, with “sequentially” for “continuous”, “for 3 cycles of 28 days each. One cycle comprises 14 days of” for “containing”, “only followed by 14 days of 2” for “and 1”, “estradiol” for “norethisterone acetate”, “14 days combined with 10 mg dydrogesterone.” for “84 days.”, “75” for “50”

[8] = system: healthy women of childbearing age; test: Clinical study: contraceptive injections (150 mg medroxyprogesterone acetate) with or without irbesartan; details: daily 75 mg irbesartan, 6 months, with two injections of 150 mg medroxyprogesterone acetate; vs contraceptive injection alone
Description: A clinical study is conducted in 40 healthy women of childbearing age. Two groups of 20 women are enrolled. All subjects receive two contraceptive injections containing 150 mg medroxyprogesterone acetate each with an interval of 3 months (13 weeks). Twenty (20) subjects are randomized to additionally receive daily 75 mg irbesartan as an angiotensin II-receptor antagonist during the entire study period of 6 months. All subjects document any unscheduled vaginal bleeding (spotting, breakthrough bleeding) in a diary. Blood pressure is monitored intensively.

## C[C@H](CS)C(=O)N1CCC[C@H]1C(=O)O [captopril]
[1]
  Efficacy between groups: do not differ significantly
  episodes of unscheduled bleeding: fewer episodes of unscheduled bleeding
  overall safety profile: comparable to that of the group receiving the HRT preparation alone

## CCOC(=O)[C@H](CCc1ccccc1)N[C@@H](C)C(=O)N1CCC[C@H]1C(=O)O [enalapril]
[2]
  blood pressure pattern between groups: does not differ significantly
  episodes of unscheduled bleeding: fewer episodes of unscheduled bleeding
  intensity of blood loss: less intense blood loss, if any
  overall safety profile: comparable to that of the group receiving the oral contraceptive alone

## CCCCC1=NC2(CCCC2)C(=O)N1Cc1ccc(-c2ccccc2-c2nnn[nH]2)cc1 [irbesartan]
[3]
  blood pressure pattern between groups: does not differ significantly
  episodes of unscheduled bleeding: fewer episodes of unscheduled bleeding
  intensity of blood loss: less intense blood loss, if any
  overall safety profile: comparable to that of the group receiving the oral contraceptive alone
[4]
  Efficacy between groups: do not differ significantly
  blood pressure pattern between groups: do not differ significantly
  episodes of unscheduled bleeding: fewer episodes of unscheduled bleeding
  intensity of blood loss: less intense blood loss, if any
  overall safety profile: comparable to that of the group receiving the HRT preparation alone
[5]
  blood pressure pattern between groups: does not differ significantly
  episodes of unscheduled bleeding: fewer episodes of unscheduled bleeding
  intensity of blood loss: less intense blood loss, if any
  overall safety profile: comparable to that of the group receiving the contraceptive implant alone
[6]
  blood pressure pattern between groups: does not differ significantly
  episodes of unscheduled bleeding: fewer episodes of unscheduled bleeding
  intensity of blood loss: less intense blood loss, if any
  overall safety profile: comparable to that of the group receiving the oral contraceptive alone
[7]
  Efficacy between groups: do not differ
  blood pressure pattern between groups: do not differ
  episodes of unscheduled bleeding: fewer episodes of unscheduled bleeding
  intensity of blood loss: less intense blood loss, if any
  overall safety profile: comparable to that of the group receiving the HRT preparation alone
[8]
  blood pressure pattern between groups: does not differ significantly
  episodes of unscheduled bleeding: fewer episodes of unscheduled bleeding
  intensity of blood loss: less intense blood loss, if any
  overall safety profile: comparable to that of the group receiving the contraceptive injection alone
